Earlier results on four molecules are cited in patent publication US20040062754A1, “Photopheresis treatment of chronic HCV infections” (priority 1996, published 2004).

Series [1] concerns progressive systemic sclerosis. The note with it: 56 patients enrolled.

As to `CC(C)(S)[C@@H](N)C(=O)O` [D-penicillamine], the response rate in series [1] was 32%.
For `Nc1nc2c(ncn2COCCO)c(=O)[nH]1` [acyclovir], in the series on hepatitis C virus (in vivo), the “benefit in chronic hepatitis C” value is “little benefit”.
As for interferon alpha-2b, recombinant, in the series with hepatitis C virus (six month course, 3 million units three times a week), the “sustained response off treatment” value is recorded as 18%.
As for interferon-alpha, the “relapse rate after interferon therapy” value with hepatitis C virus (in vivo) was 80-85%. Besides, the “patients with normal LFTs and nondetectable HCV RNA by RT-PCR seven years later” value in the series on hepatitis C virus (ten patients, subcutaneous injections for up to a year) was “Six”.
